The source of these data is patent US12595248B2, “PRMT5 inhibitors” (Merck Sharp & Dohme LLC, priority 2019, dated 2026).

Where two headings read alike, the source gives them in different places.

Assay [1] deals with T1, PRMT5-MEP50 enzyme complex (Homo sapiens, UniProt O14744).
T1 construct: Full-length (FL)-PRMT5-MEP50 enzyme complex (recombinant proteins from baculovirus-transfected Sf21 cells: FL-PRMT5; MW=73837 kDa and FL-MEP50; MW=38614); made in house; host or cells: baculovirus-transfected Sf21 cells
T1 sequence (O14744 whole entry): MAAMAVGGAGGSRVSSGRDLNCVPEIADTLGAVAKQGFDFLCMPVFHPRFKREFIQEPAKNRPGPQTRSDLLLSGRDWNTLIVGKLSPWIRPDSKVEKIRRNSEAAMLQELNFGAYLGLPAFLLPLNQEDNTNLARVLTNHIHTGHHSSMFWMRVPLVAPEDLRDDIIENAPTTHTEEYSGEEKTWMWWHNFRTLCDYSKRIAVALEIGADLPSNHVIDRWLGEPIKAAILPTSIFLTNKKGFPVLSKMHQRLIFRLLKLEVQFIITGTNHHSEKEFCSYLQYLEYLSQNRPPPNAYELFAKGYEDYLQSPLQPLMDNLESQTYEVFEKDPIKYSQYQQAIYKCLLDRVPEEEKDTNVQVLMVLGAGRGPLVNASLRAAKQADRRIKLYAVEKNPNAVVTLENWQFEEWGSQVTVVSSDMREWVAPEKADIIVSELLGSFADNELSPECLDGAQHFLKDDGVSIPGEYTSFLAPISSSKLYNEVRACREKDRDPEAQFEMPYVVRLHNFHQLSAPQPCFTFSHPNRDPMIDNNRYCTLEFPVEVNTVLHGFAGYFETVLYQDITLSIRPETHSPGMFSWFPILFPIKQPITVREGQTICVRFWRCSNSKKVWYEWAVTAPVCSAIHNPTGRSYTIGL
T1 sequence (Q9BQA1 whole entry partner): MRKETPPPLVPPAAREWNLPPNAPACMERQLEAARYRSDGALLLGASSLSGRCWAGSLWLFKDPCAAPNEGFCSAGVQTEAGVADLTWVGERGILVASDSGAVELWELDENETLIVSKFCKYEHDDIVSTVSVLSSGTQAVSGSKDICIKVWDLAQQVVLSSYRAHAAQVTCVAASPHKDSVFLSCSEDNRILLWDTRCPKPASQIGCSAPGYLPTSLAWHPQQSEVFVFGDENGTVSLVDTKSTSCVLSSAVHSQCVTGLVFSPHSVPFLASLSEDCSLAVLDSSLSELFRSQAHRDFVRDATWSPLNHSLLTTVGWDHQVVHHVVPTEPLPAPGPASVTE
The assay is described as follows: PRMT5-MEP50 Enzyme Methylation Assay (Version B). Type of assay: biochemical. As to the method:
PRMT5-MEP50 Enzyme Methylation Assay (Version B)
PRMT5-MEP50 biochemical assay is a direct measurement of the methylation activity of the enzyme complex on a short peptide substrate derived from the N-terminus of H4 histone. Methylation experiment was performed with recombinant PRMT5-MEP50 protein complex. The assessment of inhibitory effect (EC50) of small molecules was measured by the effectiveness of the compounds to inhibit this reaction.
In this assay, the potency (EC50) of each compound was determined from a twenty-point (1:2 serial dilution; top compound concentration of 100000 nM) titration curve using the following outlined procedure. To each well of a white ProxiPlus 384 well-plate, 100 nL of compound (1% DMSO in final assay volume of 10 μL) was dispensed, followed by the addition of 8 μL of 1× assay buffer (50 mM Bicine pH 8.0, 1 mM DTT, 0.004% Tween20, 0.01% BSA) containing 0.625 nM of Full-length (FL)-PRMT5-MEP50 enzyme complex (recombinant proteins from baculovirus-transfected Sf21 cells: FL-PRMT5; MW=[…] and FL-MEP50; MW=38614). Plates were sealed and placed in a 37° C. humidified chamber for 30 minutes pre-incubation with compounds. Subsequently, each reaction was initiated by the addition of 2 μL 1× assay buffer containing 375 nM biotinylated H4R3 (MeI) peptide, and 75 μM S-(5′-Adenosyl)-L-Methionine Chloride (SAM). The final reaction in each well of 10 μL consists of 0.5 nM PRMT5-MEP50, 75 nM biotinylated-peptide, and 15 μM SAM. Methylation reactions were allowed to proceed for 150 minutes in a sealed plate at 37° C. Reactions were immediately quenched by the addition of 1 μL of 10% formic acid. Plates were then frozen and shipped to SAMDI™ Tech Inc. to determine the percent conversion from […]. Dose-response curves were generated by plotting percent effect (% product conversion; Y-axis) vs. Log 10 compound concentrations (X-axis). EC50 values were determined by non-linear regression according to models for either sigmoidal (4 parameters) or biphasic (7 parameters) dose-response curves.

A further assay addresses T2, PRMT5 (Homo sapiens, UniProt O14744).
T2 construct: seeded with 4000 MCF-7 cells in 30 μl media; endogenous in cells; host or cells: MCF-7 cells
Briefly: PRMT5 Cell Target Engagement (TE) Assay. The following applies: MCF-7 cells, treated for 3 days, symmetric dimethylation of arginine (SDMA) by high content imaging. Type of assay: cell-based. An excerpt:
PRMT5 Cell Target Engagement (TE) Assay
The PRMT5 TE assay is a biomarker assay for identifying compounds that inhibit symmetric dimethylation of arginine (SDMA) of PRMT5 substrates. The following substrates have been reported for PRMT5: histone H2A and H4 R3, Histone H3 R2, Histone H3 R8, spliceosome Sm proteins, ribosomal protein RPS10, p53, FEN1, nucleoplasmin, nucleolin, EGFR and EBNA. The assay focuses on detecting symmetrically dimethylated nuclear proteins using high content imaging technology. Detection of the expression of symmetrically dimethylated nuclear proteins is through a mixture of primary rabbit monoclonal antibodies to SDMA (CST 13222), which in turn recognized by an Alexafluor 488 dye-conjugated anti-rabbit IgG secondary antibody. The IN Cell Analyzer 2200 or Opera-Phenix measures nuclear Alexafluor 488 fluorescent dye intensity that is directly related to the level of expression of symmetrically dimethylated nuclear proteins at the single cell level. Nuclear AF488 dye intensities are compared to the mean value for DMSO treated cells (MIN) to report percent of inhibition for each compound-treated well.
In this assay, the cell potency (EC50) of each compound was determined from a ten point (1:3 serial dilution; top compound concentration of 10000 nM) titration curve using the following outlined procedure. Each well of a BD falcon collagen coated black/clear bottom 384-well plate was seeded with 4000 MCF-7 cells in 30 μl media and allowed to attach for 5 h. Media is ATCC-formulated Eagle's Minimum Essential Medium, Catalog No. 30-2003. To make the complete growth medium, the following components were added to the base medium: 0.01 mg/mL human recombinant insulin; fetal bovine serum to a final concentration of 10%. Additional 30 μl of media containing 2× compounds were added to each well. Cells were treated for 3 days in 37° C. CO2 incubator. On day 3, cells were fixed with Cytofix, permeabilized with 0.4% Triton-X-100/Cytofix, and washed with D-PBS without Ca/Mg. Cells were blocked with Licor Odessey blocking reagent for 1 h at room temperature, followed by incubation with anti-SDMA (1:1000) antibody at 4° C. overnight. 1° antibody was removed, followed by three washings with DPBS without Ca/Mg and 0.05% Tween20. Hoechst (5 μg/mL), Cell Mask deep stain (1:2000) and Alexa488-conjugated goat anti-rabbit IgG (2 μg/mL) was added for 1 h at room temperature. A final washing step (three washes) was performed before sealing plate for imaging on In Cell Analyzer 2200 or Opera-Phenix. Images from analyzer were uploaded to Columbus (at WP or BOS) for image analysis. IC50 values were determined by 4 parameters robust fit of percent fluorescence units vs. (Log10) compound concentrations.

[2] abbreviates: only one EC50 shown: 4 parameters single site sigmoidal model, 30 min pre-incubation, read-out: Enzyme Methylation Assay Version B (EC50).
[3] abbreviates: first of two EC50s: 7 parameters biphasic model, read-out: Enzyme Methylation Assay Version B (EC50_1).
Where [4] appears, read: second of two EC50s: 7 parameters biphasic model, read-out: Enzyme Methylation Assay Version B (EC50_2).

T2 sequence (O14744 whole entry): as the sequence (O14744 whole entry) above
T2 sequence (Q9BQA1 whole entry partner): as the sequence (Q9BQA1 whole entry partner) above

As for `CC(C)(C#N)c1ccc(C(=O)N2CC[C@@H](N3CCc4ccccc4C3)[C@H](O)C2)cn1` (single isomer, unassigned) [Example 90], the EC50 in assay [1] (setting [2]) was 1540 nM; on PRMT5, more than 10000 nM.

In the case of `CC1OC(=O)Nc2cc(C(=O)N3CC[C@@H](N4CCc5ccccc5C4)[C@H](O)C3)ccc21` (single isomer, unassigned) [Example 92], the results for the EC50 (in assay [1] (setting [3]); in assay [1] (setting [4]); at PRMT5) were 4.4 nM, 2460 nM and 32 nM, respectively.

For the compound `CC(=O)N1CCC(Nc2cc(C(=O)N3CCC(N4Cc5ccccc5C(F)(F)C4)C(O)C3)c(F)cn2)CC1` (single isomer, unassigned) [Example 24, 1-(4-((4-(-4-(4,4-difluoro-3,4-dihydroisoquinolin-2(1H)-yl)-3-hydroxypiperidine-1-carbonyl)-5-fluoropyridin-2-yl)amino)piperidin-1-yl)ethan-1-one], the EC50 was 5560 nM in assay [1] (setting [2]) and more than 10000 nM at PRMT5.

Take `CC1OC(=O)Nc2cc(C(=O)N3CC[C@H](N4CCc5ccccc5C4)[C@@H](O)C3)ccc21` (single isomer, unassigned) [Example 91]: the EC50 in assay [1] (setting [3]) was 127 nM; in assay [1] (setting [4]), 70800 nM; at PRMT5 it was 7530 nM.

For the compound `O=C(c1ccc(-c2ncnn2C2CC2)cc1)N1CC[C@@H](N2CCc3ccccc3C2)[C@H](O)C1` [Example 61, (4-(1-cyclopropyl-1H-1,2,4-triazol-5-yl)phenyl)((3R,4R)-4-(3,4-dihydroisoquinolin-2(1H)-yl)-3-hydroxypiperidin-1-yl)methanone], the results for the EC50 (in assay [1] (setting [2]); at PRMT5) were 2550 nM and more than 10000 nM, respectively.

Regarding `Cc1ccc2c(c1)CCN([C@H]1CCN(C(=O)c3ccc(OCC(F)(F)F)nc3)C[C@@H]1O)C2` [Example 4, ((3S,4S)-3-hydroxy-4-(6-methyl-3,4-dihydroisoquinolin-2(1H)-yl)piperidin-1-yl)(6-(2,2,2-trifluoroethoxy)pyridin-3-yl)methanone], the figures for the EC50 (in assay [1] (setting [3]); in assay [1] (setting [4]); at PRMT5) were approximately 10 nM, 29200 nM and more than 10000 nM, respectively.

As for `O=C(c1cn2c(n1)CCC(C(F)(F)F)C2)N1CC[C@H](N2CCc3ccccc3C2)[C@@H](O)C1` (single isomer, unassigned) [Example 82], the EC50 in assay [1] (setting [3]) is approximately 8 nM; in assay [1] (setting [4]) it was 6170 nM; at PRMT5, 100 nM.

On to `O=C(c1ccc(C(=O)N2C3CCC2COC3)cc1)N1CC[C@@H](N2CCc3cc(F)ccc3C2)[C@H](O)C1` [Example 40, (4-(3-oxa-8-azabicyclo[3.2.1]octane-8-carbonyl)phenyl)((3R,4R)-4-(6-fluoro-3,4-dihydroisoquinolin-2(1H)-yl)-3-hydroxypiperidin-1-yl)methanone], for which the results for the EC50 (in assay [1] (setting [3]); in assay [1] (setting [4]); at PRMT5) were 45100 nM, more than 100000 nM and more than 10000 nM, respectively.

For `CC(=O)N1CCC(Nc2cc(C(=O)N3CCC(N4Cc5ccccc5C(F)(F)C4)C(O)C3)c(F)cn2)CC1` (single isomer, unassigned) [Example 27, 1-(4-((5-fluoro-4-(-4-(4,4-difluoro-3,4-dihydroisoquinolin-2(1H)-yl)-3-hydroxypiperidine-1-carbonyl)pyridin-2-yl)amino)piperidin-1-yl)ethan-1-one], the EC50 in assay [1] (setting [2]) is 809 nM; at PRMT5, more than 10000 nM.

In the case of `O=C(c1ccc(OCC(F)(F)F)nc1)N1CC[C@@H](N2CCc3ccccc3C2)[C@H](O)C1` [Example 44, ((3R,4R)-4-(3,4-dihydroisoquinolin-2(1H)-yl)-3-hydroxypiperidin-1-yl)(6-(2,2,2-trifluoroethoxy)pyridin-3-yl)methanone], the EC50 is approximately 312 nM in assay [1] (setting [3]), more than 100000 nM in assay [1] (setting [4]) and more than 10000 nM at PRMT5.

In the case of `CC1OC(=O)Nc2cc(C(=O)N3CC[C@H](N4CCc5ccccc5C4)[C@@H](O)C3)c(F)cc21` (single isomer, unassigned) [Example 99], the EC50 came out at 8.2 nM in assay [1] (setting [3]), 8710 nM in assay [1] (setting [4]) and 131 nM on PRMT5.
